Like-named read-outs stand apart in the source and are kept apart here. Marks after values point to notes of the source that are not given here.
Columns and labels:
DARPP-32 [1] = experiment: DARPP-32 phosphorylation in mouse brain slices, immunoblotting with phosphorylation state-specific antibodies; conditions: for phospho-Thr34 DARPP-32 / phospho-Thr75 DARPP-32: prefrontal cortex slices, n=6; for phospho-Thr34 DARPP-32: 2 min of incubation; for phospho-Thr75 DARPP-32: 10 min of incubation
DARPP-32 [2] = conditions: cited from earlier work
[3] = pNPP hydrolysis by recombinant PP2C isoforms (phosphatase assay); assay type: biochemical, rat; conditions: for Vmax of pNPP hydrolysis, Mn^2+ compared to Mg^2+ (higher): 20 mM Mn^2+ versus 20 mM Mg^2+; for Vmax / kcat / Km: pNPP as substrate; for Km: 37° C.
Method: The activity of PP2C isoforms using pNPP as substrate was assayed as previously described (Brumel et al., 1997). […] The reaction was stopped by addition of 1 ml of 0.1 M NaOH, and the initial rate of p-nitrophenol release was determined spectrophotometrically at 405 nm (using a molar extinction coefficient of 18 000 M−1 cm−1).
(§1) Kinetic parameters (Km and Vmax) were determined from Lineweaver-Burk plots.
Legend Table 7. Enzymatic activities of PP2C isoforms assayed using pNPP as substrate. Phosphatase activity was measured using pNPP as substrate by the change in absorbance at 405 nm. Km and Vmax values were calculated from Lineweaver-Burk plots of the data.

phospho-Ser137-DARPP-32 = experiment: Dephosphorylation of phospho-Ser137-DARPP-32 by recombinant PP2C isoforms; assay type: biochemical, rat; conditions: [^32P]phospho-Ser137 DARPP-32 as substrate; in the presence of 10 mM Mn^2+
Method: The activity of PP2C isoforms using ^32P-DARPP (phosphorylated at Ser137) was assayed at 37° C. in a reaction mixture containing 25 mM Tris-HCl, pH 7.5, 10 mM MnCl2, 1% BSA, and […] substrate, in a total volume of […]. Reactions were stopped by addition of […] of 50% trichloroacetic acid. Samples were then incubated on ice for 30 min and centrifuged at 10,000 g for 10 min at 4° C. Radioactivity recovered in the supernatant was measured by Cerenkov counting in a scintillation counter (Beckman).
as §1
Legend Table 8. Enzymatic activities of PP2C isoforms assayed using [^32P]phospho-Ser137 DARPP-32 as substrate. Phosphatase activity was measured by the release of ^32P, and Km and Vmax values were calculated from Lineweaver-Burk plots of the data.

[4] = neostriatal slices, compound at 10 μM, 2 min incubation
[5] = neostriatal slices, compound at 10 μM, 10 min incubation
[6] = neostriatal slices, compound at 100 μM, 2 min incubation, vehicle control = 100
[7] = neostriatal slices, compound at 100 μM, 10 min incubation, vehicle control = 100
[8] = Mus musculus, 2 min, read-out: Percent Phospho-Thr34
[9] = Mus musculus, 10 min, read-out: Percent Phospho-Thr75
[10] = neostriatal slices, compound at 300 μM, 2 min incubation
[11] = Mus musculus, 2 min, read-out: Percent Phospho-Ser137

CCN(CC)CCOC(=O)c1cc(Cl)c(N)cc1OC [SDZ205,557]
Percent Phospho-Ser137 (DARPP-32 [1]; [4]): 102(8.8) Percent | Percent Phospho-Thr34 (DARPP-32 [1]; [4]): 94(16.7) Percent | Percent Phospho-Thr75 (DARPP-32 [1]; [5]): 103(17.5) Percent

O=C(CCCN1CCC(O)(c2ccc(Cl)cc2)CC1)c1ccc(F)cc1 [haloperidol]
frontal cortex levels of DARPP-32 immunoreactivity (DARPP-32 [2]; chronic administration in rats): without effects

NCCNS(=O)(=O)c1ccc(Cl)c2ccncc12 [CK1-7]
Percent Phospho-Ser137 (DARPP-32 [1]; [6]): 87(4.0)* Percent | Percent Phospho-Thr34 (DARPP-32 [1]; [6]): 102(11.5) Percent | Percent Phospho-Thr75 (DARPP-32 [1]; [7]): 96(10.0) Percent

c1ccc2sc(N3CCN(Cc4ccc5c(c4)OCO5)CC3)nc2c1 [PPB, 2-[1-(4-Piperonyl)piperazinyl]benzothiazole]
Percent Phospho-Ser137 (DARPP-32 [1]; [6]): 108(2.0) Percent | Percent Phospho-Thr34 (DARPP-32 [1]; [6]): 218(36.1)* Percent | Percent Phospho-Thr75 (DARPP-32 [1]; [7]): 72(8.8)* Percent | phospho-Thr34 DARPP-32 (DARPP-32 [1]): 203±15% | phospho-Thr75 DARPP-32 (DARPP-32 [1]): 84±4%

CN1CCc2cc(Cl)c(O)cc2[C@@H](c2ccccc2)C1 [SCH23390]
activity at 10 µM (DARPP-32 [1]; [8]): 76% | activity at 10 µM (DARPP-32 [1]; [9]): 109%

Nc1ncnc2c1ncn2[C@@H]1O[C@@H]2CO[P@@](O)(=S)O[C@H]2[C@H]1O [RpcAMPs]
Percent Phospho-Ser137 (DARPP-32 [1]; [10]): 108(10.0) Percent | Percent Phospho-Thr34 (DARPP-32 [1]; [10]): 88(13.1) Percent | Percent Phospho-Thr75 (DARPP-32 [1]; neostriatal slices, compound at 300 μM, 10 min incubation): 105(7.2) Percent

O=C(c1ccc(F)cc1)C1CCN(CCn2c(=O)[nH]c3ccccc3c2=O)CC1 [Ketanserin]
activity at 10 µM (DARPP-32 [1]; [11]): 97% | activity at 10 µM (DARPP-32 [1]; [8]): 94% | activity at 10 µM (DARPP-32 [1]; [9]): 105%

CN1CC[C@]23c4c5ccc(O)c4O[C@H]2[C@@H](O)C=C[C@H]3[C@H]1C5 [morphine]
frontal cortex levels of DARPP-32 immunoreactivity (DARPP-32 [2]; rat, in vivo): without effects

CCN1CCC[C@H]1CNC(=O)c1c(O)c(Cl)cc(Cl)c1OC [Raclopride]
activity at 10 µM (DARPP-32 [1]; [11]): 101% | activity at 10 µM (DARPP-32 [1]; [8]): 150% | activity at 10 µM (DARPP-32 [1]; [9]): 85%

NC1=N[C@H](O)[C@H]2[C@H]3O[C@]4(O)O[C@@H]([C@@H](O)[C@@]2(N1)[C@@H]4O)[C@]3(O)CO [Tetrodotoxin]
Percent Phospho-Ser137 (DARPP-32 [1]): 98(12.5) Percent | Percent Phospho-Thr34 (DARPP-32 [1]): 91.8(5.8) Percent | Percent Phospho-Thr75 (DARPP-32 [1]): 103(3.5) Percent

NC1CCN(c2cccc(Cl)n2)CC1 [SR 57227]
Percent Phospho-Ser137 (DARPP-32 [1]; [6]): 105(9.6) Percent | Percent Phospho-Thr34 (DARPP-32 [1]; [6]): 78(3.5)* Percent | Percent Phospho-Thr75 (DARPP-32 [1]; [7]): 88(4.8) Percent

CNc1cc(NS(=O)(=O)c2ccc(N)cc2)nc(NC)n1 [Ro 07-6790]
Percent Phospho-Ser137 (DARPP-32 [1]; [4]): 105(7.3) Percent | Percent Phospho-Thr34 (DARPP-32 [1]; [4]): 90(8.7) Percent | Percent Phospho-Thr75 (DARPP-32 [1]; [5]): 101(12.5) Percent

N[C@@H]1C[C@H]1c1ccccc1 (racemic) [tranylcypromine]
frontal cortex levels of DARPP-32 immunoreactivity (DARPP-32 [2]; rat, in vivo): significant increases

CN(C)CCCN1c2ccccc2CCc2ccccc21 [imipramine]
frontal cortex levels of DARPP-32 immunoreactivity (DARPP-32 [2]; chronic administration in rats): significant increases

COc1ccc2c(c1)CC[C@@H]1[C@@H]2CC[C@]2(C)[C@@H](NCCCCCCN3C(=O)C=CC3=O)CC[C@@H]12 [U-73122]
Percent Phospho-Ser137 (DARPP-32 [1]; [4]): 86(6.2)* Percent | Percent Phospho-Thr34 (DARPP-32 [1]; [4]): 117(10.9) Percent | Percent Phospho-Thr75 (DARPP-32 [1]; [5]): 90(6.6) Percent

C=CCN1CCc2c(cc(O)c(O)c2Cl)C(c2ccccc2)C1 (centres unmarked) [SKF 82958]
activity at 10 µM (DARPP-32 [1]; [11]): 115% | activity at 10 µM (DARPP-32 [1]; [8]): 552% | activity at 10 µM (DARPP-32 [1]; [9]): 65%

Clc1cccc(SC2CCNCC2)n1 [Anpirtoline]
activity at 100 µM (DARPP-32 [1]; [11]): 93% | activity at 100 µM (DARPP-32 [1]; [8]): 86% | activity at 100 µM (DARPP-32 [1]; [9]): 102%

COc1cc(CC(C)N)c(OC)cc1I.Cl (racemic) [DOI, (±)-2,5-dimethoxy-4-iodoamphetamine hydrochloride; (±)-1-(2,5 dimethoxy-4-iodophenyl)-2-aminopropane]
Percent Phospho-Ser137 (DARPP-32 [1]; [6]): 158(8.3)* Percent | Percent Phospho-Thr34 (DARPP-32 [1]; [6]): 144(16.7) Percent | Percent Phospho-Thr75 (DARPP-32 [1]; [7]): 105(4.5) Percent | EC50 (DARPP-32 [1]; read-out: EC50 at phospho-Ser137 DARPP-32, neostriatal slices): 18.2 µM

CCc1[nH]c2ccc(OC)cc2c1CCN(C)C [EMDT, 2-ethyl-5-methoxy-N,N-dimethyltryptamine]
EC50 (DARPP-32 [1]; Mus musculus, 2 min, read-out: EC50 for effect on DARPP-32 phosphorylation at Thr34): 20.5 µM | EC50 (DARPP-32 [1]; Mus musculus, 10 min, read-out: EC50 for effect on DARPP-32 phosphorylation at Thr75): 27.4 µM | phospho-Thr34 DARPP-32 (DARPP-32 [1]): 185±19% | phospho-Thr75 DARPP-32 (DARPP-32 [1]): 80±17%

CN1CCN(C2=Nc3cc(Cl)ccc3Nc3ccccc32)CC1 [Clozapine]
activity at 10 µM (DARPP-32 [1]; [11]): 105% | activity at 10 µM (DARPP-32 [1]; [8]): 124% | activity at 10 µM (DARPP-32 [1]; [9]): 101%

COc1ccc2[nH]cc(CCN)c2c1 [5-MT, 5-methoxytryptamine]
activity at 100 µM (DARPP-32 [1]; [8]): 261 ± 31% | activity at 100 µM (DARPP-32 [1]; [9]): 76 ± 7% | Percent Phospho-Thr34 (DARPP-32 [1]; [6]): 261(31.5)* Percent | Percent Phospho-Thr75 (DARPP-32 [1]; [7]): 76(7.6)* Percent

B1: PP2Cg: recombinant his-tagged gamma isoform of protein phosphatase 2C cloned from rat striatum (protein)
chain: MGAYLSQPNTVKCSGDGVGAPRLPLPYGFSAMQGWRVSMEDAHNCIPELDNETAMFSVYDGHGGEEVALYCAKYLPDIIKDQKAYKEGKLQKALQDAFLAIDAKLTTDEVIKELAQIAGRPTEDEDDKEKVADEDDVDNEEAALLHEEATMTIEELLTRYGQNCQKGPPHTKSGTGIGDEPEPQGLNGEAGPEDPSRETPSQENGPTAKGHTGPSSNSDHGTEAGQIGEPGTATGEAGPSCSSASDKLPRVAKSKFFEDSEDESDEVEEEEDDSEECSEDEDGYSSEEAENEEDEDDTEEAEEDDDEEMMVPGMEGKEEPGSDSGTTAVVALIRGKQLIVANAGDSRCVVSEAGKALDMSYDHKPEDEVELARIKNAGGKVTMDGRVNGGLNLSRAIGDHFYKRNKNLPPQEQMISALPDIKVLTLTDDHEFMVIACDGIWNVMSSQEVVDFIQSKISQRDENGELRLLSSIVEELLDQCLAPDTSGDGTGCDNMTCIIICFKPRNTVELQPESGKRKLEEALSTEGAEENGNSDKKKAKRD
modifications: left off: small tags and cut ends
notes: recombinant his-tagged gamma isoform of protein phosphatase 2C cloned from rat striatum
Vmax of pNPP hydrolysis, Mn^2+ compared to Mg^2+ (higher) [3]: 15 fold | Km of pNPP hydrolysis, Mn^2+ compared to Mg^2+ (lower) ([3]; Mn^2+ substitutes Mg^2+): 24 fold | Vmax ([3]; in the presence of 20 mM Mg^2+): 0.09 µmol/mg/min | kcat ([3]; in the presence of 20 mM Mg^2+): 0.094 s⁻¹ | Km ([3]; in the presence of 20 mM Mg^2+): 12800 µM | Vmax ([3]; in the presence of 20 mM Mn^2+): 1.29 µmol/mg/min | kcat ([3]; in the presence of 20 mM Mn^2+): 1.35 s⁻¹ | Km ([3]; in the presence of 20 mM Mn^2+): 520 µM | Km (phospho-Ser137-DARPP-32): 7 µM | Vmax (phospho-Ser137-DARPP-32): 0.31 µmol/mg/min | kcat (phospho-Ser137-DARPP-32): 0.32 s⁻¹

B2: PP2Cb: recombinant his-tagged beta isoform of protein phosphatase 2C cloned from rat striatum (protein, UniProt P35815 2-390, looked up)
Protein phosphatase 1B: GAFLDKPKTEKHNAHGAGNGLRYGLSSMQGWRVEMEDAHTAVVGIPHGLEDWSFFAVYDGHAGSRVANYCSTHLLEHITTNEDFRAADKSGFALEPSVENVKTGIRTGFLKIDEYMRNFSDLRNGMDRSGSTAVGVMISPTHIYFINCGDSRAVLCRNGQVCFSTQDHKPCNPMEKERIQNAGGSVMIQRVNGSLAVSRALGDYDYKCVDGKGPTEQLVSPEPEVYEILRAEEDEFVVLACDGIWDVMSNEELCEFVNSRLEVSDDLENVCNWVVDTCLHKGSRDNMSIVLVCFANAPKVSDEAVKRDLELDKHLESRVEEIMQKSGEEGMPDLAHVMRILSAENIPNLPPGGGLAGKRNVIEAVYSRLNPNKDNDGGAGDLEDSLVAL
modifications: His tag
notes: recombinant his-tagged beta isoform of protein phosphatase 2C cloned from rat striatum
Vmax of pNPP hydrolysis, Mn^2+ compared to Mg^2+ (higher) [3]: approximately 50 fold | Vmax ([3]; in the presence of 20 mM Mg^2+): 0.20 µmol/mg/min | kcat ([3]; in the presence of 20 mM Mg^2+): 0.16 s⁻¹ | Km ([3]; in the presence of 20 mM Mg^2+): 3200 µM | Vmax ([3]; in the presence of 20 mM Mn^2+): 10.72 µmol/mg/min | kcat ([3]; in the presence of 20 mM Mn^2+): 8.42 s⁻¹ | Km ([3]; in the presence of 20 mM Mn^2+): 2290 µM | Km (phospho-Ser137-DARPP-32): 25.3 µM | Vmax (phospho-Ser137-DARPP-32): 0.99 µmol/mg/min | kcat (phospho-Ser137-DARPP-32): 0.78 s⁻¹

Reference: patent US7320785B2, “Compositions and methods for modulation of DARPP-32 phosphorylation” (The Rockefeller University, priority 2001, dated 2008)
